Measurements: ChEMBL document CHEMBL1201862, “PubChem BioAssay data set” (2004)
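A five-concentration, 48-hour dose response in 96-well plates underlies each endpoint, interpolated linearly between surrounding concentrations. At the GI50, growth is halved.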 Activity calls are given as the source filed them. No stated cut-off is given here; in the data, active = GI50 up to about 1.1 µM and inactive = higher.

Key:
Test in all cases: growth of human tumour cells (NCI), 48 h
SF-539 = test system: SF-539
SF-295 = test system: SF-295
HT-29 = test system: HT-29
SK-MEL-28 = test system: SK-MEL-28
MDA-N = test system: MDA-N
SR = test system: SR
HL-60 = test system: HL-60
HOP-92 = test system: HOP-92
CAKI-1 = test system: CAKI-1
EKVX = test system: EKVX
SK-MEL-2 = test system: SK-MEL-2
OVCAR-5 = test system: OVCAR-5
CCRF-CEM = test system: CCRF-CEM
HCT-116 = test system: HCT-116
OVCAR-4 = test system: OVCAR-4
NCI-H23 = test system: NCI-H23
DU-145 = test system: DU-145
OVCAR-8 = test system: OVCAR-8
UACC-62 = test system: UACC-62
SNB-75 = test system: SNB-75

Row | SMILES | GI50 (SF-539) | GI50 (SF-295) | GI50 (HT-29) | GI50 (SK-MEL-28) | GI50 (MDA-N) | GI50 (SR) | GI50 (HL-60) | GI50 (HOP-92) | GI50 (CAKI-1) | GI50 (EKVX) | GI50 (SK-MEL-2) | GI50 (OVCAR-5) | GI50 (CCRF-CEM) | GI50 (HCT-116) | GI50 (OVCAR-4) | GI50 (NCI-H23) | GI50 (DU-145) | GI50 (OVCAR-8) | GI50 (UACC-62) | GI50 (SNB-75)
1 | N#CC(C#N)=NNc1ccc2cn[nH]c2c1 | 70.8 µM (inactive) | > 100 µM (inactive) | 91.2 µM (inactive) | > 100 µM (inactive) | 43.9 µM (inactive) | 22.6 µM (inactive) | 18.6 µM (inactive) | 37.1 µM (inactive) | 29.6 µM (inactive) | 47.3 µM (inactive) | > 100 µM (inactive) | > 100 µM (inactive) | 13.6 µM (inactive) | 20.5 µM (inactive) | 30.7 µM (inactive) | 19.1 µM (inactive) | 29 µM (inactive) | 51.4 µM (inactive) | > 100 µM (inactive) | –
2 | CC1(C)N=C(N)N=C(N)N1c1ccc(CCCCc2ccc(Cl)cc2Cl)cc1 | 0.929 µM (active) | 0.893 µM (active) | 0.546 µM (active) | 2.88 µM (inactive) | 0.982 µM (active) | 0.735 µM (active) | 0.461 µM (active) | 4.08 µM (inactive) | 2.05 µM (inactive) | 15.1 µM (inactive) | 0.887 µM (active) | 4.31 µM (inactive) | 0.736 µM (active) | 0.247 µM (active) | 0.542 µM (active) | 0.339 µM (active) | 1.92 µM (inactive) | 0.598 µM (active) | – | –
3 | NS(=O)(=O)c1ccc(/N=N/c2nc3nc(O)nc(O)c3[nH]2)cc1 | > 100 µM (inactive) | > 100 µM (inactive) | > 100 µM (inactive) | > 100 µM (inactive) | > 100 µM (inactive) | 39.8 µM (inactive) | – | > 100 µM (inactive) | > 100 µM (inactive) | > 100 µM (inactive) | > 100 µM (inactive) | > 100 µM (inactive) | – | > 100 µM (inactive) | > 100 µM (inactive) | > 100 µM (inactive) | > 100 µM (inactive) | > 100 µM (inactive) | > 100 µM (inactive) | > 100 µM (inactive)
4 | OC1CCC(COC(c2ccccc2)(c2ccccc2)c2ccccc2)O1 (stereo not drawn) | 17.3 µM (inactive) | 15.9 µM (inactive) | 18.3 µM (inactive) | 18 µM (inactive) | 18.7 µM (inactive) | > 10 µM (inactive) | 18.2 µM (inactive) | – | 17.1 µM (inactive) | > 10 µM (inactive) | 18.1 µM (inactive) | 22.9 µM (inactive) | 14.2 µM (inactive) | 16.7 µM (inactive) | – | 18 µM (inactive) | 20.8 µM (inactive) | 17.9 µM (inactive) | 17.2 µM (inactive) | 13.4 µM (inactive)
5 | Cn1c(=O)n2c(=O)n(C)c(=O)n2c1=O | > 100 µM (inactive) | – | > 100 µM (inactive) | > 100 µM (inactive) | > 100 µM (inactive) | > 100 µM (inactive) | > 100 µM (inactive) | – | > 100 µM (inactive) | > 100 µM (inactive) | > 100 µM (inactive) | > 100 µM (inactive) | > 100 µM (inactive) | 91.8 µM (inactive) | > 100 µM (inactive) | > 100 µM (inactive) | > 100 µM (inactive) | > 100 µM (inactive) | > 100 µM (inactive) | > 100 µM (inactive)
6 | O=C1c2ccccc2C(=O)N1CCCCCCNOCCCN1C(=O)c2ccccc2C1=O | – | 29.4 µM (inactive) | 36.6 µM (inactive) | 55.3 µM (inactive) | 31.6 µM (inactive) | 33.4 µM (inactive) | – | 34 µM (inactive) | 50.4 µM (inactive) | 25.6 µM (inactive) | 16.3 µM (inactive) | > 100 µM (inactive) | 25.6 µM (inactive) | 48.8 µM (inactive) | 22.3 µM (inactive) | 26.1 µM (inactive) | 51.8 µM (inactive) | 38.9 µM (inactive) | 19.5 µM (inactive) | 25.1 µM (inactive)
7 | CN(C)/C=C1\CCc2ccc([N+](=O)[O-])cc2C1=O | – | > 100 µM (inactive) | 24.3 µM (inactive) | > 100 µM (inactive) | 19.2 µM (inactive) | 31 µM (inactive) | 25.7 µM (inactive) | – | > 100 µM (inactive) | > 100 µM (inactive) | > 100 µM (inactive) | > 100 µM (inactive) | 19.8 µM (inactive) | 17.9 µM (inactive) | 17.9 µM (inactive) | 53.6 µM (inactive) | > 100 µM (inactive) | 45.7 µM (inactive) | 24.5 µM (inactive) | > 100 µM (inactive)
8 | Cc1[nH]c2c(c1C)S(=O)(=O)c1cc3ccccc3nc1N2 | 6.81 µM (inactive) | 27.3 µM (inactive) | 15 µM (inactive) | 25.5 µM (inactive) | 15.7 µM (inactive) | 17.1 µM (inactive) | – | 25.4 µM (inactive) | 30.5 µM (inactive) | 36.7 µM (inactive) | 55.3 µM (inactive) | 19.7 µM (inactive) | 5.09 µM (inactive) | 15.8 µM (inactive) | 14.3 µM (inactive) | 23.9 µM (inactive) | 24.9 µM (inactive) | 12.3 µM (inactive) | 42.7 µM (inactive) | 17.3 µM (inactive)
9 | CC1CC(OP(=O)(OCc2ccccc2)OCc2ccccc2)[C@@H](OCc2ccccc2)C(OCc2ccccc2)C1OCc1ccccc1 (stereo partly drawn) | > 100 µM (inactive) | 75.5 µM (inactive) | 67.9 µM (inactive) | > 100 µM (inactive) | > 100 µM (inactive) | > 100 µM (inactive) | 28.5 µM (inactive) | – | > 100 µM (inactive) | 34.1 µM (inactive) | > 100 µM (inactive) | > 100 µM (inactive) | > 100 µM (inactive) | 17.9 µM (inactive) | > 100 µM (inactive) | 25.3 µM (inactive) | > 100 µM (inactive) | > 100 µM (inactive) | > 100 µM (inactive) | 39.5 µM (inactive)
10 | C[C@@H](NC(=O)Nc1cccc(C(=O)Nc2cc(C(C)(C)C)ccc2C(=O)O)n1)c1ccccc1 | – | 25.2 µM (inactive) | 35.5 µM (inactive) | 41.4 µM (inactive) | 38.4 µM (inactive) | 28.4 µM (inactive) | 45.3 µM (inactive) | – | 82.2 µM (inactive) | 52.5 µM (inactive) | 18.1 µM (inactive) | 33.4 µM (inactive) | – | 19.9 µM (inactive) | 50.1 µM (inactive) | 41.7 µM (inactive) | 40.2 µM (inactive) | 40.6 µM (inactive) | 19.7 µM (inactive) | 32.1 µM (inactive)
11 | OCC(O)C(Cl)CCl (stereo not drawn) | > 100 µM (inactive) | > 100 µM (inactive) | > 100 µM (inactive) | > 100 µM (inactive) | > 100 µM (inactive) | > 100 µM (inactive) | > 100 µM (inactive) | – | > 100 µM (inactive) | > 100 µM (inactive) | – | > 100 µM (inactive) | > 100 µM (inactive) | > 100 µM (inactive) | > 100 µM (inactive) | > 100 µM (inactive) | > 100 µM (inactive) | > 100 µM (inactive) | > 100 µM (inactive) | > 100 µM (inactive)
12 | CCOC(=O)[C@@H]1C2C(=C[C@H]3[C@H]1C(=O)N1CCCC[C@H]31)CCCN2C(=O)OCc1ccccc1 (stereo partly drawn) | 43.6 µM (inactive) | 32.5 µM (inactive) | 30.3 µM (inactive) | 59.7 µM (inactive) | 35.7 µM (inactive) | – | 20.8 µM (inactive) | 76.4 µM (inactive) | 43.1 µM (inactive) | 38.3 µM (inactive) | 22.8 µM (inactive) | 76.4 µM (inactive) | 22.3 µM (inactive) | 35.6 µM (inactive) | 37.8 µM (inactive) | 29.3 µM (inactive) | 39.1 µM (inactive) | 35.5 µM (inactive) | 17.4 µM (inactive) | 75.7 µM (inactive)
13 | CN(C)CCNC(=O)Cn1ccc(=O)c2cc([N+](=O)[O-])ccc21 | > 100 µM (inactive) | > 100 µM (inactive) | > 100 µM (inactive) | > 100 µM (inactive) | > 100 µM (inactive) | > 100 µM (inactive) | > 100 µM (inactive) | > 100 µM (inactive) | > 100 µM (inactive) | > 100 µM (inactive) | > 100 µM (inactive) | > 100 µM (inactive) | > 100 µM (inactive) | > 100 µM (inactive) | – | > 100 µM (inactive) | > 100 µM (inactive) | – | > 100 µM (inactive) | –
14 | COc1ccc(O[C@H](CO)C[C@@H]2COC(C)(C)O2)cc1 | > 100 µM (inactive) | > 100 µM (inactive) | > 100 µM (inactive) | > 100 µM (inactive) | > 100 µM (inactive) | > 100 µM (inactive) | – | – | > 100 µM (inactive) | > 100 µM (inactive) | > 100 µM (inactive) | > 100 µM (inactive) | > 100 µM (inactive) | > 100 µM (inactive) | > 100 µM (inactive) | > 100 µM (inactive) | > 100 µM (inactive) | > 100 µM (inactive) | > 100 µM (inactive) | > 100 µM (inactive)
15 | COc1cccc(/C=C\c2ccnc3ccccc23)c1 | > 10 µM (inactive) | > 10 µM (inactive) | > 10 µM (inactive) | > 10 µM (inactive) | > 10 µM (inactive) | – | > 10 µM (inactive) | > 10 µM (inactive) | > 10 µM (inactive) | > 10 µM (inactive) | > 10 µM (inactive) | > 10 µM (inactive) | > 10 µM (inactive) | > 10 µM (inactive) | > 10 µM (inactive) | > 10 µM (inactive) | > 10 µM (inactive) | > 10 µM (inactive) | > 10 µM (inactive) | > 10 µM (inactive)
